Test results published in paper PMC6910976 (ACS infectious diseases, 2019).

How the values were obtained:
Test in all cases: UPLC-high resolution MS of intact protein
Assay type in all cases: binding
Conditions in all cases: covalent; 2 uM enzyme, 50 uM drug, 25 mM Tris pH 8.0, 5 h, 20 °C
LdtF = molecular target: T1, LdtF (Mycolicibacterium smegmatis, UniProt A0QS24)
T1 sequence (A0QS24 31-420): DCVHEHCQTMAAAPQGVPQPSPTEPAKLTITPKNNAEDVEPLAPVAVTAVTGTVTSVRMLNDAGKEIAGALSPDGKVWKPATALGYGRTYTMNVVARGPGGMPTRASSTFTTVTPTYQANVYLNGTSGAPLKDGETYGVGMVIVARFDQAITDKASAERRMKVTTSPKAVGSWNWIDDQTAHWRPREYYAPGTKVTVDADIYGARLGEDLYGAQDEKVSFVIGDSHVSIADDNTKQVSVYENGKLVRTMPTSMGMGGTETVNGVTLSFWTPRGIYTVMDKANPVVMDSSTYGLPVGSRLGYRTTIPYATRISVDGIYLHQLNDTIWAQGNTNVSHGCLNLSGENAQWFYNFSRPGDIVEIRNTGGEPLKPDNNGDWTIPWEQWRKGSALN

LdtA = molecular target: T2, LdtA (Mycolicibacterium smegmatis, UniProt A0QY44)
T2 sequence (A0QY44 41-259): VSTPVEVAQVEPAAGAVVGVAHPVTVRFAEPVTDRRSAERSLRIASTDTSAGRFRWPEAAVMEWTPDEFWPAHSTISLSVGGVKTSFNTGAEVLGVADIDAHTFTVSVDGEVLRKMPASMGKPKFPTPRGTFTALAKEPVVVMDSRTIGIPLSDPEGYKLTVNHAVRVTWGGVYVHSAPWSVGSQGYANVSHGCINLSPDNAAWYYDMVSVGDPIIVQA

LdtB = molecular target: T3, LdtB (Mycolicibacterium smegmatis, UniProt A0R1G6)
T3 sequence (A0R1G6 27-400): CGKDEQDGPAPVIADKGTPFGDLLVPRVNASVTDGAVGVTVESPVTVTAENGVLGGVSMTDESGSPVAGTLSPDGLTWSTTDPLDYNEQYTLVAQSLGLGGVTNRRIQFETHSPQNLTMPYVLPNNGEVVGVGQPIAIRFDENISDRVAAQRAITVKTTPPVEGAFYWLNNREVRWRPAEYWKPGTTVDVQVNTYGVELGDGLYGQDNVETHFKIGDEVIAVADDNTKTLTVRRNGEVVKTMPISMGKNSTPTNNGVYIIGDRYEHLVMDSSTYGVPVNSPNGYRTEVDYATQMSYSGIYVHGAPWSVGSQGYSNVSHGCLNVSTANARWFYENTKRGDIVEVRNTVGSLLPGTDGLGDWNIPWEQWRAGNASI

| SMILES | UPLC-high resolution MS of intact protein (LdtF) | UPLC-high resolution MS of intact protein (LdtA) | UPLC-high resolution MS of intact protein (LdtB) |
| --- | --- | --- | --- |
| C[C@@H](O)[C@H]1C(=O)N2C(C(=O)O)=C([C@H]3CCCO3)S[C@H]12 [faropenem] | small amounts of apo-LdtF remained following incubation with biapenem, doripenem, and faropenem | fully acylated by the (carba)penems faropenem, biapenem, doripenem, and meropenem | fully acylated by the (carba)penems faropenem, biapenem, doripenem, and meropenem |
| C[C@@H](O)[C@H]1C(=O)N2C(C(=O)O)=C(S[C@@H]3CN[C@H](C(=O)N(C)C)C3)[C@H](C)[C@H]12 [meropenem] | only meropenem completely acylates LdtF under the same conditions | fully acylated by the (carba)penems faropenem, biapenem, doripenem, and meropenem | fully acylated by the (carba)penems faropenem, biapenem, doripenem, and meropenem |
| C[C@@H](O)[C@H]1C(=O)N2C(C(=O)O)=C(S[C@@H]3CN[C@H](CNS(N)(=O)=O)C3)[C@H](C)[C@H]12 [doripenem] | small amounts of apo-LdtF remained following incubation with biapenem, doripenem, and faropenem |  |  |
| C[C@@H](O)[C@H]1C(=O)N2C(C(=O)[O-])=C(SC3Cn4cnc[n+]4C3)[C@H](C)[C@H]12 (stereo partly shown) [biapenem] | small amounts of apo-LdtF remained following incubation with biapenem, doripenem, and faropenem | fully acylated by the (carba)penems faropenem, biapenem, doripenem, and meropenem | fully acylated by the (carba)penems faropenem, biapenem, doripenem, and meropenem |
